According to paper PMC12275099, “VX-445 (elexacaftor) inhibits chloride secretion across human bronchial epithelial cells by directly blocking KCa3.1 channels” (PNAS Nexus, 2025):
Several values for one entry are separate records, joined by “and”; a condition that tells them apart may be missing. Identical values can stand only once.

Biological target: T1, KCa3.1 (Homo sapiens, UniProt O15554)
T1 construct: expressed in transfected cells
Assay: Excised inside-out patch-clamp on HEK-KCa3.1
Assay type: biochemical
Settings: for relative remaining current: Fig 3I single experiments
Method: Our Isc results are consistent with VX-445 inhibiting KCa3.1 in HBEs. To directly assess this possibility, we initially carried out whole-cell patch-clamp studies on undifferentiated HBEs. […] Upon application of 10 µM VX-445, a majority of this current was inhibited, averaging 87 ± 4% (n = 3, P < 0.005; Fig. 3B). A summary of the current–voltage (I–V) relationship—normalized to cell capacitance—is shown in Fig. 3C, which also includes the whole-cell I–V in the presence of Tram-34. […] To ensure isolation of KCa3.1 currents and to more fully characterize this VX-445-dependent inhibition of KCa3.1, we utilized HEK cells heterologously expressing KCa3.1 (HEK-KCa3.1). Initially, we confirmed our results from HBEs, using whole-cell recordings, as above. […] In seven experiments, this inhibition averaged 58 ± 7% (P < 0.005). […] It is well recognized that drugs are carried to their targets in the blood bound to albumin, which ranges from 3.4 to 5.4%. Thus, we determined whether VX-445 (10 µM) would inhibit KCa3.1 expressed in HEK cells in the presence of 3.4% albumin. In four experiments, VX-445 inhibited an average of 51 ± 17% of the whole-cell KCa3.1 current, which is not different from that observed in the absence of albumin. To confirm the direct effect of VX-445 on KCa3.1, we utilized the excised, inside-out patch-clamp technique. The patch was then exposed to DCEBIO (100 µM) to further activate the channels ([34–37])—analogous to our Isc studies in HBEs. […] In three experiments, VX-445 inhibited an average of 63 ± 6% of the KCa3.1 current. Based on these experiments, we determined the apparent inhibitory constant, Ki for VX-445. For these experiments, patches were excised into saturating Ca^2+ (3 µM) to ensure maximal KCa3.1 activation. These studies were carried out in the absence of DCEBIO to eliminate the possibility that the inhibition observed was due to competition for the DCEBIO-binding site.
HEK cells stably expressing KCa3.1 (IK1, SK4), KCa2.3 (SK3), and KCa2.2 (SK2) were generated and cultured as previously described by us ([37], [66–71]).
HEK cells expressing the channel of interest were plated onto poly-L-lysine-coated glass coverslips 1–2 days prior to patch-clamp analysis. Electrophysiological recordings in the excised, inside-out, and whole-cell patch-clamp configurations were performed as recently described ([14]). For excised patch-clamp recordings, the pipette solution contained (in mM): 140 K-gluconate, 5 KCl, 1 CaCl2, 1 MgCl2, and 10 HEPES. The pH was adjusted to 7.2 with KOH. The bath solution contained (in mM): 145 K-gluconate, 5 KCl, 1.3 MgCl2, 10 HEPES, and 1 EGTA. Sufficient CaCl2 was added to obtain the desired free Ca^2+ concentration at a pH of 7.2 (adjusted with KOH). When recording KCa3.1 channels, ATP (300 µM) was added to the bath to diminish channel rundown ([73]). All recordings were carried out at a voltage of −100 mV, referenced to the extracellular compartment, as is standard. The apparent Ki and Hill coefficient for each CFTR corrector on KCa3.1, KCa2.3, and KCa2.2 were determined during a continuous recording by step-wise addition of increasing concentrations of compound and fitting the resultant relative remaining current to a Hill equation (Prism v. 10.1.0). The zero current level was determined by the addition of a 0 Ca^2+ solution (zero-added Ca^2+ plus 1 mM EGTA) at the end of the experiment. In the case of KCa3.1, TRAM-34, a known inhibitor of KCa3.1 ([45]), was used to confirm expression of the channel. For whole-cell experiments, pipettes contained (in mM): 145 K-gluconate, 10 EGTA, 7.5 CaCl2, 2 MgCl2, 3 mM NaATP, and 10 HEPES. The bath solution contained (in mM): 140 K-gluconate, 5 KCl, 1.0 MgCl2, 10 HEPES, and 2 CaCl2. Current–voltage relationships were determined by stepping from a holding potential of −80 mV to +80 mV in 20 mV increments for 400 ms. […]

Structure (SMILES): Cc1nn(C)cc1S(=O)(=O)NC(=O)c1ccc(-n2ccc(OCC(C)(C)C(F)(F)F)n2)nc1N1C[C@@H](C)CC1(C)C [VX-445, elexacaftor]
- Hill coefficient (3 µM free Ca2+, absence of DCEBIO): 1.2
- Ki (3 µM free Ca2+, absence of DCEBIO, Hill fit, n = 4, read-out: apparent Ki): 8 ± 2 µM
- inhibition at 10 µM (10 µM compound after DCEBIO 100 µM, 1 µM free Ca2+, three experiments, read-out: inhibition of KCa3.1 current in excised patch): 63 ± 6%
- selectivity among KCNN gene family members (KCa3.1 versus KCa2.2 and KCa2.3): exhibits selectivity for KCa3.1 over KCa2.x channels
- relative remaining current ([VX-445] 0.1): 100
- relative remaining current ([VX-445] 1): 86 and 95 and 100 and 83
- relative remaining current ([VX-445] 3): 68 and 80 and 93 and 62
